Legend:
[1] = tested on: full NCI 60 cell panel; experiment: NCI 60 Cell One-dose screen; format: cell-based, human; settings: single high dose 10^−5 M, NCI 60 panel
Description: Compounds were submitted to the NCI 60 Cell screen and tested at a single high dose (10^−5 M) in the full NCI 60 cell panel (see the following reference for details of using NCI 60 human tumor cell lines for screening anticancer drugs: Shoemaker R H. The NCI60 human tumor cell line anticancer drug screen. Nature Rev Cancer 2006; 6: 813-23). The One-dose data is reported as a mean graph of the percent growth of treated cells. The number reported for the One-dose assay is growth relative to the no-drug control, and relative to the time zero number of cells. This allows detection of both growth inhibition (values between 0 and 100) and lethality (values less than 0). For example, a value of 100 means no growth inhibition. A value of 40 would mean 60% growth inhibition. A value of 0 means no net growth over the course of the experiment. A value of −40 would mean 40% lethality. A value of −100 means all cells are dead. FIGS. 1-8 show the mean graph of percent growth against the NCI-60 cell panel for NUCC-0226674, NUCC-0226679, NUCC-0226680, NUCC-0226683, NUCC-0226689, NUCC-0226694, NUCC-0226695, and NUCC-0226698.

[2] = tested on: A549/ATCC; experiment: NCI 60 five-dose screen A549/ATCC; format: cell-based; settings: Homo sapiens, five-dose
[3] = tested on: EKVX; experiment: NCI 60 five-dose screen EKVX; format: cell-based; settings: Homo sapiens, five-dose
[4] = tested on: HOP-92; experiment: NCI 60 five-dose screen HOP-92; format: cell-based; settings: Homo sapiens, five-dose
[5] = tested on: NCI-H322M; experiment: NCI 60 five-dose screen NCI-H322M; format: cell-based; settings: Homo sapiens, five-dose
[6] = tested on: NCI-H460; experiment: NCI 60 five-dose screen NCI-H460; format: cell-based; settings: Homo sapiens, five-dose
[7] = tested on: NCI-H522; experiment: NCI 60 five-dose screen NCI-H522; format: cell-based; settings: Homo sapiens, five-dose
[8] = tested on: COLO 205; experiment: NCI 60 five-dose screen COLO 205; format: cell-based; settings: Homo sapiens, five-dose
[9] = tested on: SW-620; experiment: NCI 60 five-dose screen SW-620; format: cell-based; settings: Homo sapiens, five-dose
[10] = tested on: SF-295; experiment: NCI 60 five-dose screen SF-295; format: cell-based; settings: Homo sapiens, five-dose
[11] = tested on: SNB-75; experiment: NCI 60 five-dose screen SNB-75; format: cell-based; settings: Homo sapiens, five-dose
[12] = tested on: LOX IMVI; experiment: NCI 60 five-dose screen LOX IMVI; format: cell-based; settings: Homo sapiens, five-dose
[13] = tested on: MDA-MB-435; experiment: NCI 60 five-dose screen MDA-MB-435; format: cell-based; settings: Homo sapiens, five-dose
[14] = tested on: SK-MEL-2; experiment: NCI 60 five-dose screen SK-MEL-2; format: cell-based; settings: Homo sapiens, five-dose
[15] = tested on: NCI/ADR-RES; experiment: NCI 60 five-dose screen NCI/ADR-RES; format: cell-based; settings: Homo sapiens, five-dose
[16] = tested on: 786-0; experiment: NCI 60 five-dose screen 786-0; format: cell-based; settings: Homo sapiens, five-dose
[17] = tested on: ACHN; experiment: NCI 60 five-dose screen ACHN; format: cell-based; settings: Homo sapiens, five-dose
[18] = tested on: CAKI-1; experiment: NCI 60 five-dose screen CAKI-1; format: cell-based; settings: Homo sapiens, five-dose
[19] = tested on: SN12C; experiment: NCI 60 five-dose screen SN12C; format: cell-based; settings: Homo sapiens, five-dose
[20] = tested on: UO-31; experiment: NCI 60 five-dose screen UO-31; format: cell-based; settings: Homo sapiens, five-dose
[21] = tested on: PC-3; experiment: NCI 60 five-dose screen PC-3; format: cell-based; settings: Homo sapiens, five-dose
[22] = tested on: BT-549; experiment: NCI 60 five-dose screen BT-549; format: cell-based; settings: Homo sapiens, five-dose
[23] = tested on: T-47D; experiment: NCI 60 five-dose screen T-47D; format: cell-based; settings: Homo sapiens, T47D, five-dose
[24] = tested on: MDA-MB-468; experiment: NCI 60 five-dose screen MDA-MB-468; format: cell-based; settings: Homo sapiens, five-dose
[25] = read-out: LC50 (the source's name) (converted)

In the case of OC1CCC(Cn2c(C(F)(F)F)cc3c(Cl)ncnc32)CC1 (stereo not drawn) [NUCC-0226689], the “growth inhibition in the One-Dose Screen” value [1] is reported as “significant growth inhibition”, the GI50 [2] is reported as 30.9 µM and the IC50 [2] is reported as 43.7 µM. The IC (TGI) [2] was 100 µM, the CC50 [2, 25] was no less than 100 µM and the GI50 [3] was 12.9 µM. For the same compound, the IC50 [3] was 29.5 µM, the IC (TGI) [3] was 38.9 µM and the CC50 [3, 25] was no less than 100 µM. It also gave a GI50 [4] of 20.4 µM, an IC50 [4] of 74.1 µM and an IC (TGI) [4] of 64.6 µM. It also gave a CC50 [4, 25] of no less than 100 µM, a GI50 [5] of 3.8 µM and an IC50 [5] of 10.2 µM. The IC (TGI) [5] was 13.5 µM, the CC50 [5, 25] was 38 µM and the GI50 [6] was 4.79 µM. The IC50 [6] was 5.5 µM, the IC (TGI) [6] was 16.6 µM and the CC50 [6, 25] was 53.7 µM. For the same compound, the GI50 [7] was 1.55 µM, the IC50 [7] was 3.09 µM and the IC (TGI) [7] was 3.55 µM. It also gave a CC50 [7, 25] of 8.13 µM, a GI50 [8] of 24.5 µM and an IC50 [8] of 45.7 µM. The IC (TGI) [8] was 100 µM, the CC50 [8, 25] was no less than 100 µM and the GI50 [9] was 12.3 µM. The IC50 [9] was 17 µM, the IC (TGI) [9] was 38.9 µM and the CC50 [9, 25] was no less than 100 µM. It also gave a GI50 [10] of 22.9 µM, an IC50 [10] of 38.9 µM and an IC (TGI) [10] of 83.2 µM. It also gave a CC50 [10, 25] of no less than 100 µM, a GI50 [11] of 10.7 µM and an IC50 [11] of 23.4 µM. For the same compound, the IC (TGI) [11] was 22.9 µM, the CC50 [11, 25] was 49 µM and the GI50 [12] was 1.7 µM. For the same compound, the IC50 [12] was 3.02 µM, the IC (TGI) [12] was 3.16 µM and the CC50 [12, 25] was 5.75 µM. For the same compound, the GI50 [13] was 12 µM, the IC50 [13] was 20 µM and the IC (TGI) [13] was 25.7 µM. It also gave a CC50 [13, 25] of 55 µM, a GI50 [14] of 13.2 µM and an IC50 [14] of 28.8 µM. For the same compound, the IC (TGI) [14] was 28.2 µM, the CC50 [14, 25] was 58.9 µM and the GI50 [15] was 26.3 µM. The IC50 [15] was 43.7 µM, the IC (TGI) [15] was 100 µM and the CC50 [15, 25] was no less than 100 µM. The GI50 [16] was 32.4 µM, the IC50 [16] was 49 µM and the IC (TGI) [16] was 100 µM. The CC50 [16, 25] was no less than 100 µM, the GI50 [17] was 8.71 µM and the IC50 [17] was 15.5 µM. For the same compound, the IC (TGI) [17] was 50.1 µM, the CC50 [17, 25] was no less than 100 µM and the GI50 [18] was 16.6 µM. The IC50 [18] was 33.1 µM, the IC (TGI) [18] was 52.5 µM and the CC50 [18, 25] was no less than 100 µM. It also gave a GI50 [19] of 5.37 µM, an IC50 [19] of 10 µM and an IC (TGI) [19] of 20 µM. For the same compound, the CC50 [19, 25] was 53.7 µM, the GI50 [20] was 15.1 µM and the IC50 [20] was 38.9 µM. It also gave an IC (TGI) [20] of 66.1 µM, a CC50 [20, 25] of no less than 100 µM and a GI50 [21] of 8.91 µM. For the same compound, the IC50 [21] was 15.5 µM, the IC (TGI) [21] was 36.3 µM and the CC50 [21, 25] was no less than 100 µM. It also gave a GI50 [22] of 13.2 µM, an IC50 [22] of 28.2 µM and an IC (TGI) [22] of 28.2 µM. The CC50 [22, 25] was 58.9 µM, the GI50 [23] was 26.3 µM and the IC50 [23] was 91.2 µM. The IC (TGI) [23] was 100 µM, the CC50 ([23]; read-out: LC50 (the source's name)) was no less than 100 µM and the GI50 [24] was 2.14 µM. It also gave an IC50 [24] of 7.08 µM, an IC (TGI) [24] of 5.62 µM and a CC50 [24, 25] of 22.4 µM.
